Earlier results in US20260248820A1, “USES OF HYDROGENATED CANNABIDIOL (H4CBD) AND ADVANCED METABOLIC SYNDROME” (The Regents of the University of California, priority 2022, published 2026).

Assays:
rodents = details: cited from earlier work
[1] = test system: endocannabinoid receptors; details: cited from earlier work
[2] = test system: diet-induced obese (DIO) and non-obese diabetic mice; details: cited from earlier work
[3] = clinical; cited from earlier work
[4] = rats without underlying metabolic dysfunction; cited from earlier work
PTZ-induced seizure = details: rats; cited from earlier work

Row | SMILES | Documented toxicity (rodents) [mg/kg] | Affinity for the endocannabinoid receptors responsible for cannabis intoxication [1] | Incidence of diabetes [2] | Effects of high doses administered clinically [3] | Body mass gain [4] | Reduction of PTZ-induced seizure frequency and severity (PTZ-induced seizure)
1 | C=C(C)[C@@H]1CCC(C)=C[C@H]1c1c(O)cc(CCCCC)cc1O [CBD, Cannabidiol] | > 600 | little affinity | reduced the incidence of diabetes | anorexic and diarrheal effects | inhibit body mass gain | –
2 | CCCCCc1cc(O)c([C@@H]2C=C(C)CC[C@H]2C(C)C)c(O)c1 [H2CBD, dihydrocannabidiol] | – | – | – | – | – | equal effectiveness to that of CBD
